The values below come from publication PMC7660650, “Chemical Starting Matter for HNF4α Ligand Discovery and Chemogenomics” (International Journal of Molecular Sciences, 2020).

Values joined by “and” are separate entries in the source; they are usually repeats but may differ in a detail not shown here. Equal entries are not always repeated.

The first assay concerns the target T1, Gal4-HNF4α (human HNF4α LBD) (Homo sapiens, UniProt P41235).
T1 construct: uniprot entry: P41235-1, residues 142-377; expressed in transfected cells; host or cells: HEK293T
T1 sequence (P41235 142-377): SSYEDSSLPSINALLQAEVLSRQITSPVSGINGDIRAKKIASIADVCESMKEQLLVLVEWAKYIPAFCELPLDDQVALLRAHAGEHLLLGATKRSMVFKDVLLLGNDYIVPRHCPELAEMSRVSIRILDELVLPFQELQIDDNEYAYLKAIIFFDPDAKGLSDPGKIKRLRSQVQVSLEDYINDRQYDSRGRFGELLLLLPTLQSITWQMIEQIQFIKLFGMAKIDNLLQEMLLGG
Briefly: Hybrid Gal4-HNF4α reporter gene assay in transiently transfected HEK293T cells. The class given is cell-based.
Conditions: not given
In general terms: In a reporter assay the amount or activity of a reporter protein is the signal.
As for `Nc1cc2ccccc2oc1=O` [Prestw-Frag-1001, Nc1cc2ccccc2oc1=O], the “HNF4a-screening_activity_(mean_of_n=2)” value is 0.9336 and 1.001.

Staying with this assay, now noted: Table S1, primary screening, 50 µM.
In the case of `CN1C2CCC1CC(O)C2` (stereo not shown) [Prestw-Frag-0608, CN1C2CCC1CC(O)C2], the “HNF4a-screening_activity_(mean_of_n=2)” value is 1.089 and 1.102. `CC(C)(C)NCC(O)COc1ccccc1C1CCCC1` (stereo not shown) [Prestw-Frag-0674, CC(C)(C)NCC(O)COc1ccccc1C1CCCC1]: the “HNF4a-screening_activity_(mean_of_n=2)” value is reported as 1.434. Same read-out and setting: the same measure for `O=c1ccc2ccccc2o1` [Prestw-Frag-1000, O=c1ccc2ccccc2o1]: 1.227; for `Cc1cc(-c2ccccc2)nnc1N` [Prestw-Frag-1003, Cc1cc(nnc1N)-c1ccccc1]: 1.014 and 1.217. Still for that read-out and setting: to `NC(=O)NS(=O)(=O)c1ccccc1` [Prestw-Frag-1006, NC(=O)NS(=O)(=O)c1ccccc1] belongs 1.153 and 1.01. The same measure, in the same setting: the same measure for `CC(=O)Nc1nncs1` [Prestw-Frag-1008, CC(=O)Nc1nncs1]: 1.066 and 0.8521; for `Nc1nncs1` [Prestw-Frag-1009, Nc1nncs1]: 1.011. On to `COC(=O)C(c1ccccc1)c1ccccc1` [Prestw-Frag-1013, COC(=O)C(c1ccccc1)c1ccccc1], for which the “HNF4a-screening_activity_(mean_of_n=2)” value was 1.409 and 1.217. On the same count and under the same terms, to `c1ccc2c3c([nH]c2c1)CNCC3` [Prestw-Frag-1014, C1Cc2c(CN1)[nH]c1ccccc21] belongs 0.999 and 1.943; to `C[N+](C)(CCO)Cc1ccccc1` [Prestw-Frag-1017, C[N+](C)(CCO)Cc1ccccc1], 0.8969 and 1.169.

Regarding `NC(=O)Cc1cccs1` [Prestw-Frag-1019, NC(=O)Cc1cccs1], the “HNF4a-screening_activity_(mean_of_n=2)” value is 1.073 and 1.154. With `Cc1cc(=O)n(-c2ccccc2)[nH]1` [Prestw-Frag-1028, Cc1cc(=O)n([nH]1)-c1ccccc1], the “HNF4a-screening_activity_(mean_of_n=2)” value is listed as 1.027. For `NCCCCc1ccccc1` [Prestw-Frag-1031, NCCCCc1ccccc1], the “HNF4a-screening_activity_(mean_of_n=2)” value is listed as 1.332. `Cn1nnnc1S` [Prestw-Frag-1032, Cn1nnnc1S]: the “HNF4a-screening_activity_(mean_of_n=2)” value stood at 1.09.

`COc1ccc(Cc2ccc(OC)cc2)cc1` [Prestw-Frag-1033, COc1ccc(Cc2ccc(OC)cc2)cc1]: the “HNF4a-screening_activity_(mean_of_n=2)” value is 1.259 and 1.114. Regarding `NCc1c(N)ccc(Cl)c1Cl` [Prestw-Frag-1039, NCc1c(N)ccc(Cl)c1Cl], the “HNF4a-screening_activity_(mean_of_n=2)” value is 1.196 and 1.044. The same measure, in the same setting: the same measure for `O=C(O)c1ccccc1O` [Prestw-Frag-1045, OC(=O)c1ccccc1O]: 1.058. Still for that read-out and setting: the same measure for `CCC(=O)Nc1ncnc2[nH]cnc12` [Prestw-Frag-1047, CCC(=O)Nc1ncnc2[nH]cnc12]: 0.8266 and 1.023. On the same count and under the same terms, the same measure for `Nc1nc2ccccc2n1Cc1ccc(F)cc1` [Prestw-Frag-1050, Nc1nc2ccccc2n1Cc1ccc(F)cc1]: 0.6752 and 1.069. Regarding `COc1ccc(CCN2CCC(N)CC2)cc1` [Prestw-Frag-1051, COc1ccc(CCN2CCC(N)CC2)cc1], the “HNF4a-screening_activity_(mean_of_n=2)” value came to 1.433. On to `CC(C)(Oc1ccccc1)C(=O)O` [Prestw-Frag-1053, CC(C)(Oc1ccccc1)C(O)=O], for which the “HNF4a-screening_activity_(mean_of_n=2)” value is 0.9983 and 1.387. Still for that read-out and setting: the same measure for `Nc1ccc[nH]c1=O` [Prestw-Frag-1060, Nc1ccc[nH]c1=O]: 1.316 and 1.113. The same measure, in the same setting: to `COc1cc2c(cc1O)CCN[C@H]2C` [Prestw-Frag-1063, COc1cc2[C@H](C)NCCc2cc1O] belongs 1.128.

As for `COc1ccc(CCN)cc1O` [Prestw-Frag-1064, COc1ccc(CCN)cc1O], the “HNF4a-screening_activity_(mean_of_n=2)” value is 1.012. As for `O=[N+]([O-])c1ccc(CO)cc1` [Prestw-Frag-1071, OCc1ccc(cc1)[N+]([O-])=O], the “HNF4a-screening_activity_(mean_of_n=2)” value was 1.036 and 1.173. `CCC1=C(C)CN(C(=O)NCCc2ccccc2)C1=O` [Prestw-Frag-1075, CCC1=C(C)CN(C(=O)NCCc2ccccc2)C1=O]: the “HNF4a-screening_activity_(mean_of_n=2)” value amounted to 1.214. With `NCCc1ccc(S(N)(=O)=O)cc1` [Prestw-Frag-1076, NCCc1ccc(cc1)S(N)(=O)=O], the “HNF4a-screening_activity_(mean_of_n=2)” value is 1.134 and 1.077. On the same count and under the same terms, to `CC(=O)c1cc(Cl)ccc1O` [Prestw-Frag-1083, CC(=O)c1cc(Cl)ccc1O] belongs 1.17. On the same count and under the same terms, to `CCN(CC)CCNC(=O)c1ccccc1O` [Prestw-Frag-1086, CCN(CC)CCNC(=O)c1ccccc1O] belongs 1.563 and 0.9485. On the same count and under the same terms, the same measure for `O=c1[nH]c2ccccc2o1` [Prestw-Frag-1087, O=c1[nH]c2ccccc2o1]: 1.002 and 1.32; for `CC(=O)c1ccc(N2CCNCC2)c(F)c1` [Prestw-Frag-1094, CC(=O)c1ccc(N2CCNCC2)c(F)c1]: 1.1 and 1.293; for `Cc1ncsc1CCO` [Prestw-Frag-1098, Cc1ncsc1CCO]: 1.111. As to `NC(=O)[C@H](N)c1ccccc1` [Prestw-Frag-1099, N[C@@H](C(N)=O)c1ccccc1], the “HNF4a-screening_activity_(mean_of_n=2)” value was determined as 1.079. Still for that read-out and setting: the same measure for `Clc1ccc2c(c1)Nc1ccccc1CC2` [Prestw-Frag-1101, Clc1ccc2CCc3ccccc3Nc2c1]: 2.203; for `OC(c1ccccc1)c1ccc(Cl)cc1` (stereo not shown) [Prestw-Frag-1106, OC(c1ccccc1)c1ccc(Cl)cc1]: 0.8543. As to `c1ccc(N2CCNCC2)nc1` [Prestw-Frag-1110, C1CN(CCN1)c1ccccn1], the “HNF4a-screening_activity_(mean_of_n=2)” value turned out to be 1.308. On the same count and under the same terms, to `COC(=O)c1scc(C)c1N` [Prestw-Frag-1111, COC(=O)c1scc(C)c1N] belongs 1.183; to `CCN(Cc1ccccc1)c1ccccc1` [Prestw-Frag-1121, CCN(Cc1ccccc1)c1ccccc1], 1.173. With `OC(c1ccccc1)c1ccccc1` [Prestw-Frag-1122, OC(c1ccccc1)c1ccccc1], the “HNF4a-screening_activity_(mean_of_n=2)” value stood at 1.034. On to `NCC(CC(=O)O)c1ccccc1` (stereo not shown) [Prestw-Frag-1125, NCC(CC(O)=O)c1ccccc1], for which the “HNF4a-screening_activity_(mean_of_n=2)” value came to 0.6886.

Take `O=C(O)CCc1ccc(Cl)cc1` [Prestw-Frag-1126, OC(=O)CCc1ccc(Cl)cc1]: the “HNF4a-screening_activity_(mean_of_n=2)” value was found to be 0.7294. `Cc1oncc1C(N)=O` [Prestw-Frag-1128, Cc1oncc1C(N)=O]: the “HNF4a-screening_activity_(mean_of_n=2)” value was 0.9735 and 0.9722. On the same count and under the same terms, the same measure for `Cc1c(O)c2ccccc2oc1=O` [Prestw-Frag-1130, Cc1c(O)c2ccccc2oc1=O]: 0.9979. Same read-out and setting: the same measure for `O=c1cc(O)c2ccccc2o1` [Prestw-Frag-1131, Oc1cc(=O)oc2ccccc12]: 1.185; for `COc1ccc2ccncc2c1` [Prestw-Frag-1133, COc1ccc2ccncc2c1]: 1.332.

Take `Cn1c(=O)[nH]c2nc[nH]c2c1=O` [Prestw-Frag-1138, Cn1c(=O)[nH]c2nc[nH]c2c1=O]: the “HNF4a-screening_activity_(mean_of_n=2)” value was 0.9492. Regarding `CNC(C)(C)Cc1ccccc1` [Prestw-Frag-1141, CNC(C)(C)Cc1ccccc1], the “HNF4a-screening_activity_(mean_of_n=2)” value stood at 1.206. The same measure, in the same setting: the same measure for `COc1cc(N)ncn1` [Prestw-Frag-1154, COc1cc(N)ncn1]: 1.214; for `Oc1cccc2c1CCCC2` [Prestw-Frag-1156, Oc1cccc2CCCCc12]: 0.9426. The same measure, in the same setting: the same measure for `Cc1nnc(N)s1` [Prestw-Frag-1161, Cc1nnc(N)s1]: 1.123. For `C(=C\c1ccccc1)/CN1CCNCC1` [Prestw-Frag-1163, C(\C=C\c1ccccc1)N1CCNCC1], the “HNF4a-screening_activity_(mean_of_n=2)” value was 1.316.

Regarding `c1ccc2[nH]c(CN3CCCC3)nc2c1` [Prestw-Frag-1164, C(N1CCCC1)c1nc2ccccc2[nH]1], the “HNF4a-screening_activity_(mean_of_n=2)” value is 0.7439 and 0.7907. Still for that read-out and setting: to `Clc1ccc(Cn2cnc3ccccc32)cc1` [Prestw-Frag-1165, Clc1ccc(Cn2cnc3ccccc23)cc1] belongs 0.6294 and 0.7204; to `COc1ccc(N)nn1` [Prestw-Frag-1167, COc1ccc(N)nn1], 1.35.

With `OC(Cn1ccnc1)c1ccc(Cl)cc1Cl` (stereo not shown) [Prestw-Frag-1182, OC(Cn1ccnc1)c1ccc(Cl)cc1Cl], the “HNF4a-screening_activity_(mean_of_n=2)” value is on record as 1.1. `COc1cc2ccncc2cc1OC` [Prestw-Frag-1183, COc1cc2ccncc2cc1OC]: the “HNF4a-screening_activity_(mean_of_n=2)” value is 1.218. On the same count and under the same terms, to `Nc1ccc(Cl)nn1` [Prestw-Frag-1184, Nc1ccc(Cl)nn1] belongs 0.9468; to `CN1CCC[C@H]1c1cccnc1` [Prestw-Frag-1187, CN1CCC[C@H]1c1cccnc1], 1.172. The same measure, in the same setting: to `Cc1c(N)cccc1C(F)(F)F` [Prestw-Frag-1189, Cc1c(N)cccc1C(F)(F)F] belongs 1.319; to `O=C(O)c1cccnc1Nc1ccccc1` [Prestw-Frag-1191, OC(=O)c1cccnc1Nc1ccccc1], 1.24; to `c1ccc(C(CCN2CCCCC2)c2ccccc2)cc1` [Prestw-Frag-1193, C(CN1CCCCC1)C(c1ccccc1)c1ccccc1], 0.8943 and 1.009. The same measure, in the same setting: the same measure for `CC(Oc1ccccc1)C(N)=O` (stereo not shown) [Prestw-Frag-1200, CC(Oc1ccccc1)C(N)=O]: 0.9571 and 0.9481. Turning to `CN1CCN(c2nccc(N)n2)CC1` [Prestw-Frag-1204, CN1CCN(CC1)c1nccc(N)n1], the “HNF4a-screening_activity_(mean_of_n=2)” value was 1.248.
